Key:
[1] = tested on: HK-2 cells; experiment: Gene expression in HK-2 cells after LPS stimulus; assay type: cell-based
Description: ((N=3) One way Anova: Dunnett's test: **p<0.01 vs pathological control.)
ACMSD inhibition, with compound I-34, decreased inflammatory gene expression (IL-6 and TNF-α) in HK-2 cells following an 18 h stimulus with 30 μg/ml of LPS.

[2] = tested on: Kupffer cells; experiment: Cytokine secretion in Kupffer cells exposed to LPS; assay type: cell-based, mouse; conditions: LPS 24 h, compound 1 μM
Text: […] Cells treated with DMSO were used as control at the final concentration of 0.5% in medium. All the wells were normalized with DMSO at 0.5% final concentration. The supernatant was collected to measure cytokine secretion using a Bio-Plex Pro mouse cytokine 23-plex assay system (cat #M60009RDPD) using a Bio-Plex Instrument. The cells were washed once with PBS, and then lysed to extract total RNA for performing RT-PCR to evaluate ACMSD modulation of IL-10, SIRT1, and STAT3 gene expression.
All cytokine secretion values were normalized to the luminescent signal relative to the measuring of the cellular ATP (CellTiter-Glo cat #G7571)).
(§1) (One way Anova: Dunnett's test: **p<0.01, ***p<0.001; vs pathological control.)

[3] = tested on: mouse primary hepatocytes and murine stellate cells; experiment: Gene expression in co-cultured mouse primary hepatocytes and murine stellate cells exposed to free fatty acids; assay type: cell-based; conditions: co-culture exposed to free fatty acids (MIX)
Text: Mouse primary hepatocytes and murine stellate cells were co-cultured with FFA to induce fibrosis as observed in NASH patients.
as §1

[4] = tested on: HK-2 proximal tubule cells; experiment: Cisplatin-induced apoptosis (Caspases 3/7 activity) in HK-2 cells; assay type: cell-based; conditions: Cisplatin 50 μM; compound 10, 50 and 100 μM added 1 hr before Cisplatin injury
Text: (§2) ((N=3) One way Anova: Dunnett's test: **p<0.01, ***p<0.001; vs pathological control.)

[5] = tested on: 3D human liver microtissues; experiment: Cytokine expression and secretion in 3D human liver microtissues (organoids); assay type: cell-based; conditions: free fatty acids mix and LPS 10 μg/mL, compound 10 and 50 μM, dose-response manner
Description: 3D InSight™ Human Liver Microtissues (organoids) composed of multi-donor primary human hepatocytes in co-culture with Non-Parenchymal Cells (NPC), containing primary human Kupffer cells and primary Liver Endothelial Cells (LEC) were provided by Insphero, Switzerland. These human liver organoids to evaluate the anti-inflammatory effect of ACMSD inhibition.
The organoids were treated with free fatty acids (palmitic acid and oleic acid according to manufacturer's instructions) and lipopolisaccaride (LPS) in a diabetic medium (Insphero) at the concentration of 10 μg/mL to induce lipid accumulation in hepatocytes and pro-inflammatory cytokine secretion including; TNF-α, IL-6, IL-8, MCP-1, and MIP1α. Vehicle control solution was prepared as negative control. DMSO was maintained constant concentration of 0.1% total solution.
Two concentrations of compound I-34 (10 μM and 50 μM) were used and added together with the NASH stimuli mix. Cytokine secretion was measured in cell medium at day 4 following treatment using the Bio-Plex Pro Human Cytokine Screening Panel (Bio-Rad) according to manufacturer's instructions.
3D human liver microtissues were treated with vehicle (DMSO), a mix of free fatty acids and LPS (10 μg/mL) and mix together with two concentrations of compound I-34 (10 and 50 μM). […]

[6] = tested on: HK-2 cells; experiment: Fibrotic gene expression in HK-2 cells after TGFβ insult; assay type: cell-based; conditions: pre-treatment, TGFβ insult at 10 ng/mL
Text: as §2

[7] = tested on: Kupffer cells; experiment: Gene expression in Kupffer cells after LPS-induced inflammation; assay type: cell-based, mouse; conditions: compound 10 μM
Description: […] stimulated with LPS overnight […] (1 mg/mL stock solution in H2O, dispensed at 50 ng/mL in the well) final concentration. Cells treated with DMSO were used as control at the final concentration of 0.5% in medium. All the wells were normalized with DMSO at 0.5% final concentration. The supernatant was collected to measure cytokine secretion using a Bio-Plex Pro mouse cytokine 23-plex assay system (cat #M60009RDPD) using a Bio-Plex Instrument. The cells were washed once with PBS, and then lysed to extract total RNA for performing RT-PCR to evaluate ACMSD modulation of IL-10, SIRT1, and STAT3 gene expression.
Briefly, total RNA was extracted from the cells using the manufacturer's protocol for Qiagen RNeasy Plus Mini Kit (cat. 74134). The total RNA concentration was quantified using an Implen Instrument, and the purity was evaluated by measuring the ratio of A260/A280.
Total RNA (1 μg) was reverse transcribed using the manufacturer's protocol for SuperScript IV VILO Master Mix (ThermoFisher cat. #. 11756500). Real-time PCR was then performed in CFX 96 Real Time System (Bio-Rad) as follows: denaturation at 95° C. for 2 minutes, followed by 40 cycles at 95° C. for 10 s, and hybridization at 60° C. for 20 s. QPCR was performed using the 2× QuantiNova SYBR Green PCR Master Mix (Qiagen). Mouse β2 microglobulin (m β2M) was used as a reference gene.
Following inflammation induced by LPS (Kupffer cells treated with LPS 50 ng/mL […] incubation time) ACMSD inhibition, with compound I-34, reverses the changes in the expression of inflammatory modulators. Expression of pro-inflammatory genes is reduced (TNF-α, IL-6, and iNOS) and that of anti-inflammatory genes is increased (Arg-1, IL-10, and MRC2) by ACMSD inhibition.

[8] = 18 h stimulus with 30 μg/ml LPS, compound 100 μM

In the case of `N#Cc1c(Cc2ccccc2)nc(SCc2cccc(-c3nnn[nH]3)c2)[nH]c1=O` [Compound I-34, 4-Benzyl-6-oxo-2-[3-(1H-tetrazol-5-yl)-benzylsulfanyl]-1,6-dihydro-pyrimidine-5 carbonitrile], the ACMSD expression [1, 8] is reported as “does not significantly affect”, the “Inflammatory gene expression (IL-6 and TNF-α)” value [1, 8] is reported as “decreased” and the “Inflammatory gene expression (IL-6 and TNF-α), dose response” value ([1]; 18 h stimulus with 30 μg/ml LPS, several concentrations) is reported as “decreased inflammatory gene expression (IL-6 and TNF-α) in a dose response manner”. For the same molecule, the QPRT expression ([1]; LPS 18 h, compound 100 μM) was “reversed LPS-induced reduction of QPRT expression”, the “Secretion of pro inflammatory cytokines (IL-1β, IL-6, TNF-α)” value [2] was “decreased” and the “Expression of pro-fibrotic and pro-inflammatory genes” value [3] was “decreased”. The “Cisplatin-induced apoptosis (Caspases 3/7 activity)” value [4] was “provides protection”, the “Cytokine secretion (hepatic inflammation)” value ([5]; day 4) was “reducing” and the “Cytokine expression (hepatic inflammation)” value [5] was “reducing”. The “Fibrotic gene expression (Fibronectin and TIMP2)” value [6] was “decreased fibrotic gene expression (Fibronectin and TIMP2) in a dose response manner”, the “Expression of anti-inflammatory genes (Arg-1, IL-10, and MRC2)” value ([7]; LPS 50 ng/mL) was “increased” and the “Expression of pro-inflammatory genes (TNF-α, IL-6, and iNOS)” value ([7]; LPS 50 ng/mL) was “reduced”. For the same molecule, the QPRT expression ([7]; LPS) was “reversed LPS-induced reduction of QPRT expression”.

From patent US20240390371A1, “HETEROARYL AND HETEROCYCLIC COMPOUNDS FOR TREATING ACUTE INFLAMMATION” (TES Pharma S.r.l., priority 2023, published 2024)
